According to patent US10238670B2, “9-aminomethyl minocycline compounds and methods of use thereof in urinary tract infection (UTI) treatment” (Paratek Pharmaceuticals, Inc., priority 2016, dated 2019):
Values after ≈ are worked out from the molar mass of the structure shown.

Assays:
Assay in all cases: In vitro MIC, 2010 surveillance isolates
E. coli ESBL− = type: cell-based, Escherichia coli
E. coli ESBL+ = type: cell-based, Escherichia coli
E. faecium VS = type: cell-based
E. cloacae CeftazS = type: cell-based
E. faecalis VS = type: cell-based
K. oxytoca = type: cell-based
K. pneumoniae ESBL+ = type: cell-based, Klebsiella pneumoniae
E. faecium VNS = type: cell-based

CN(C)c1cc(NC(=O)CNC(C)(C)C)c(O)c2c1C[C@H]1C[C@H]3[C@H](N(C)C)C(O)=C(C(N)=O)C(=O)[C@@]3(O)C(O)=C1C2=O [Tigecycline]
% R (resistance) (E. coli ESBL−; Asia/Pac, Eucast breakpoints): 0%
MIC90 (E. coli ESBL−; Asia/Pac, N=282): 0.25 µg/mL (≈ 0.427 µM)
% R (resistance) (E. coli ESBL−; Europe, Eucast breakpoints): 0%
MIC90 (E. coli ESBL−; Europe, N=1533): 0.25 µg/mL (≈ 0.427 µM)
% R (resistance) (E. coli ESBL−; L. Amer, CLSI breakpoints): 0%
MIC90 (E. coli ESBL−; L. Amer, N=389): 0.25 µg/mL (≈ 0.427 µM)
% R (resistance) (E. coli ESBL−; N America, CLSI breakpoints): 0%
MIC90 (E. coli ESBL−; N America, N=1172): 0.25 µg/mL (≈ 0.427 µM)
% R (resistance) (E. coli ESBL+; Asia/Pac, Eucast breakpoints): 0%
MIC90 (E. coli ESBL+; Asia/Pac, N=219): 0.25 µg/mL (≈ 0.427 µM)
% R (resistance) (E. coli ESBL+; Europe, Eucast breakpoints): 0%
MIC90 (E. coli ESBL+; Europe, N=274): 0.5 µg/mL (≈ 0.854 µM)
% R (resistance) (E. coli ESBL+; L. Amer, CLSI breakpoints): 0%
MIC90 (E. coli ESBL+; L. Amer, N=168): 0.25 µg/mL (≈ 0.427 µM)
% R (resistance) (E. coli ESBL+; N America, CLSI breakpoints): 0%
MIC90 (E. coli ESBL+; N America, N=134): 0.25 µg/mL (≈ 0.427 µM)
% R (resistance) (E. faecium VS; Asia/Pac, Eucast breakpoints): 0%
MIC90 (E. faecium VS; Asia/Pac, N=106): 0.12 µg/mL (≈ 0.205 µM)
% R (resistance) (E. faecium VS; Europe, Eucast breakpoints): 0%
MIC90 (E. faecium VS; Europe, N=303): 0.12 µg/mL (≈ 0.205 µM)
% R (resistance) (E. faecium VS; L. Amer, CLSI breakpoints): 0%
MIC90 (E. faecium VS; L. Amer, N=51): 0.12 µg/mL (≈ 0.205 µM)
% R (resistance) (E. faecium VS; N America, CLSI breakpoints): 0%
MIC90 (E. faecium VS; N America, N=115): 0.25 µg/mL (≈ 0.427 µM)
% R (resistance) (E. cloacae CeftazS; Asia/Pac, Eucast breakpoints): 2%
MIC90 (E. cloacae CeftazS; Asia/Pac, N=100): 0.5 µg/mL (≈ 0.854 µM)
% R (resistance) (E. cloacae CeftazS; Europe, Eucast breakpoints): 0%
MIC90 (E. cloacae CeftazS; Europe, N=183): 0.5 µg/mL (≈ 0.854 µM)
% R (resistance) (E. cloacae CeftazS; L. Amer, CLSI breakpoints): 0%
MIC90 (E. cloacae CeftazS; L. Amer, N=57): 1 µg/mL (≈ 1.71 µM)
% R (resistance) (E. cloacae CeftazS; N America, CLSI breakpoints): 0%
MIC90 (E. cloacae CeftazS; N America, N=210): 0.5 µg/mL (≈ 0.854 µM)
% R (resistance) (E. faecalis VS; Asia/Pac, Eucast breakpoints): 0%
MIC90 (E. faecalis VS; Asia/Pac, N=214): 0.25 µg/mL (≈ 0.427 µM)
% R (resistance) (E. faecalis VS; Europe, Eucast breakpoints): 0%
MIC90 (E. faecalis VS; Europe, N=669): 0.25 µg/mL (≈ 0.427 µM)
% R (resistance) (E. faecalis VS; L. Amer, CLSI breakpoints): 0%
MIC90 (E. faecalis VS; L. Amer, N=290): 0.25 µg/mL (≈ 0.427 µM)
% R (resistance) (E. faecalis VS; N America, CLSI breakpoints): 0%
MIC90 (E. faecalis VS; N America, N=863): 0.25 µg/mL (≈ 0.427 µM)
% R (resistance) (K. oxytoca; Asia/Pac, Eucast breakpoints): 5.9%
MIC90 (K. oxytoca; Asia/Pac, N=17): 0.5 µg/mL (≈ 0.854 µM)
% R (resistance) (K. oxytoca; Europe, Eucast breakpoints): 0%
MIC90 (K. oxytoca; Europe, N=158): 0.5 µg/mL (≈ 0.854 µM)
% R (resistance) (K. oxytoca; L. Amer, CLSI breakpoints): 0%
MIC90 (K. oxytoca; L. Amer, N=25): 1 µg/mL (≈ 1.71 µM)
% R (resistance) (K. oxytoca; N America, CLSI breakpoints): 0%
MIC90 (K. oxytoca; N America, N=177): 0.5 µg/mL (≈ 0.854 µM)
% R (resistance) (K. pneumoniae ESBL+; Asia/Pac, Eucast breakpoints): 3.2%
MIC90 (K. pneumoniae ESBL+; Asia/Pac, N=124): 1 µg/mL (≈ 1.71 µM)
% R (resistance) (K. pneumoniae ESBL+; Europe, Eucast breakpoints): 0.7%
MIC90 (K. pneumoniae ESBL+; Europe, N=151): 1 µg/mL (≈ 1.71 µM)
% R (resistance) (K. pneumoniae ESBL+; L. Amer, CLSI breakpoints): 0%
MIC90 (K. pneumoniae ESBL+; L. Amer, N=209): 2 µg/mL (≈ 3.41 µM)
% R (resistance) (K. pneumoniae ESBL+; N America, CLSI breakpoints): 0%
MIC90 (K. pneumoniae ESBL+; N America, N=108): 2 µg/mL (≈ 3.41 µM)
% R (resistance) (E. faecium VNS; Asia/Pac, Eucast breakpoints): 0%
MIC90 (E. faecium VNS; Asia/Pac, N=24): 0.25 µg/mL (≈ 0.427 µM)
% R (resistance) (E. faecium VNS; Europe, Eucast breakpoints): 0%
MIC90 (E. faecium VNS; Europe, N=71): 0.25 µg/mL (≈ 0.427 µM)
% R (resistance) (E. faecium VNS; L. Amer, CLSI breakpoints): 0%
MIC90 (E. faecium VNS; L. Amer, N=41): 0.12 µg/mL (≈ 0.205 µM)
